Measurements taken from the PolyMetriX glass transition set.
± gives the standard deviation of the reports.

How the values were obtained:
[1] = not given; remark: listed apart in the source
[2] = not given; remark: listed apart in the source
[3] = not given; remark: listed apart in the source
[4] = not given; remark: listed apart in the source

Structure (SMILES): *CC(*)C(=O)NC(C)CC (repeat unit) [Poly(N-sec-butylacrylamide)]
- glass transition temperature: 117 °C

Structure (SMILES): *CC(*)c1ccccc1OCCCCCCCC (repeat unit) [Poly(o-n-octoxy styrene) ]
- glass transition temperature [1]: 12 ± 1.4 °C

Structure (SMILES): *c1ccc2c(c1)C(CCCCCCCC)(CCCCCCCC)c1cc(-c3ccc(-c4ccc(-c5ccc(*)s5)c5nsnc45)s3)ccc1-2 (repeat unit)
- glass transition temperature [2]: 126.00 °C

Structure (SMILES): *c1cc2c(s1)c1sc(-c3sc(-c4ccc(-c5cc(CCCCCC)c(*)s5)c5nsnc45)cc3CCCCCC)cc1n2CC(CC)CCCC (repeat unit)
- glass transition temperature [2]: 90.00 °C

Structure (SMILES): *CC(*)(C)C(=O)OCCCCCCCC(C)C (repeat unit) [Poly(isodecyl methacrylate)]
- glass transition temperature: -41 °C

Structure (SMILES): *c1ccc2c(c1)C(CCCCCCCC)(CCCCCCCC)c1cc(-c3ccc(-c4ccc(*)s4)s3)ccc1-2 (repeat unit)
- glass transition temperature [2]: 102.00 °C

Structure (SMILES): *CCCCCCO* (repeat unit) [Polyoxyhexamethylene ]
- glass transition temperature [1]: -71.6 ± 3.5 °C

Structure (SMILES): *CC(*)c1ccc(OC)cc1C (repeat unit) [Poly(4-methoxy-2-methyl styrene) ]
- glass transition temperature [1]: 87.4 ± 3.5 °C

Structure (SMILES): *c1ccc2c(c1)N(CC(CCCCCCCC)CCCCCCCCCC)C(=O)/C2=C1/C(=O)N(CC(CCCCCCCC)CCCCCCCCCC)c2cc(-c3ccc(-c4ccc(*)s4)s3)ccc21 (repeat unit)
- glass transition temperature [2]: 65.00 °C

Structure (SMILES): *Oc1cccc(Oc2ccc(Oc3cccc4c3C(=O)N(c3cccc(N5C(=O)c6cccc(*)c6C5=O)c3)C4=O)cc2)c1 (repeat unit)
- glass transition temperature [3]: 238.00 °C

Structure (SMILES): *C=C(*)c1ccccc1 (repeat unit) [Poly(phenylacetylene)]
- glass transition temperature [4]: 51 °C

Structure (SMILES): *CC(*)(C)C(=O)OCC(C)C (repeat unit) [Poly(isobutyl methacrylate) ]
- glass transition temperature [1]: 47.4 ± 0.7 °C

Structure (SMILES): *Oc1cccc(S(=O)(=O)c2ccc(Oc3ccc4c(c3)C(=O)N(c3ccc(Oc5cccc(Oc6ccc(N7C(=O)c8ccc(*)cc8C7=O)cc6)c5)cc3)C4=O)cc2)c1 (repeat unit)
- glass transition temperature [3]: 194.00 °C

Structure (SMILES): *C(=O)c1ccc2c(c1)C(=O)N(c1ccc(Cc3cccc(N4C(=O)c5ccc(*)cc5C4=O)c3)cc1)C2=O (repeat unit)
- glass transition temperature [3]: 292.00 °C

Structure (SMILES): *c1cccc2c1C(=O)N(c1ccc(Cc3ccc(N4C(=O)c5cccc(*)c5C4=O)c(C)c3)cc1C)C2=O (repeat unit)
- glass transition temperature [3]: 299.50 ± 0.7 °C

Structure (SMILES): *c1ccc2c(c1)C(CCCCCCCC)(CCCCCCCC)c1cc(-c3ccc(-c4c(-c5ccccc5)c(-c5ccccc5)c(-c5ccc(*)s5)c5nc(-c6ccccc6)c(-c6ccccc6)nc45)s3)ccc1-2 (repeat unit)
- glass transition temperature [2]: 192.00 °C

Structure (SMILES): *CC(*)c1ccc(C(C)CC)cc1 (repeat unit) [Poly(p-sec-butyl styrene) ]
- glass transition temperature [1]: 85.4 ± 0.7 °C

Structure (SMILES): *C(=O)c1ccc2c(c1)C(=O)N(c1ccc(S(=O)(=O)c3ccc(N4C(=O)c5ccc(*)cc5C4=O)cc3)cc1)C2=O (repeat unit)
- glass transition temperature [3]: 307.00 °C

Structure (SMILES): *Oc1c(F)c(F)c(Oc2c(F)c(F)c3c(c2F)C(=O)N(c2c(F)c(F)c(Sc4c(F)c(F)c(N5C(=O)c6c(F)c(*)c(F)c(F)c6C5=O)c(F)c4F)c(F)c2F)C3=O)c(F)c1F (repeat unit)
- glass transition temperature [3]: 278.00 °C

Structure (SMILES): *CC(*)c1cccc(CO)c1 (repeat unit) [Poly(m-hydroxymethyl styrene) ]
- glass transition temperature [1]: 124.4 ± 0.7 °C
